Consider 3 compounds from patent US20010047016A1, “Method for treating depression” (priority 2000, published 2001).

Experiment [1] has as its target T1, MT-3 melatonin sites of hamster brain (Mesocricetus auratus, UniProt A0ABM2YAB8).
T1 construct: MT-3 melatonin sites of hamster brain; host or cells: hamster brain
T1 sequence (A0ABM2YAB8 1-231): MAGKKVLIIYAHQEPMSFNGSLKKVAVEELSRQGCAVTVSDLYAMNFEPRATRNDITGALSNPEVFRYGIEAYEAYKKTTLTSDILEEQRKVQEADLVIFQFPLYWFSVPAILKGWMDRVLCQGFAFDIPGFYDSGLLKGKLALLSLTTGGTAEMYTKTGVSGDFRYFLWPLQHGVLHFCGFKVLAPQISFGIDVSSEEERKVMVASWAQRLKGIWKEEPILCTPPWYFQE
The note with it: cited from earlier work.

In experiment [2] the test system is other melatonin receptors. The note with it: cited from earlier work.
For the next experiment, the system named is C57BL/6J mice. The experiment in a line: tail suspension test in C57BL/6J mice. It counts as in vivo. The procedure: The tail suspension test is a variant of the “behavioral despair” forced swimming test in which immobility is induced by suspending an animal by the tail (Steru et al., 1985). […] C57BL/6 mice ([…] 21-25g) were housed, ten per cage, in light controlled chambers (12 hr. light/12 hr. dark cycle-lights on at 08.00 hr., off at 20.00 hr.) with free access to food and water. Each animal was tested in a chamber made out of white non-transparent plastics. The C57BL/6J mice are suitable animals for such a study since no enzymes of melatonin biosynthesis have been found in the pineal glands of this strain of mice (Ebihara et al., 1986). Therefore, the observed effects could not be attributed to melatonin. The chamber was 17 cm W×25 cm H×15 cm D with a hook (4 cm) attached to the center of the ceiling. There was no front wall to allow for the observation of the mouse behavior. The mouse was hung on a hook by an adhesive tape placed 15 mm from the extremity of its tail. The animal was positioned with its stomach towards the investigator to assure the observation of the total immobility. The distance between the floor of the chamber and the nose of the animal was 10 cm. Immobility was scored as a sum of the time periods during which the animal hung passively and motionless for at least 2 sec. The total period of observation was 6 min. Experiments were conducted between 10.00 hr. and 14.00 hr. in a quiet room. The source of the light (50 W fluorescent bulb) was positioned 2 m above the experimental chamber. Baseline, control experiments were conducted several days before the actual experiments. Only those animals whose cumulative duration of immobility during the 6 min. observation was no less than 100 sec. were selected for further experiments. Three animals were tested simultaneously. Each experimental group was composed of at least nine animals. […] Nifedipine was injected in a dose (5 mg/kg, i.p.) which, by itself, has no effect on the duration of immobility ([…] and Oxenkrug, 1998). […] Results were expressed as mean±S.D. (sec.) and statistically treated by ANOVA and Student t-test.

Another experiment concerns mouse. As to conditions: mouse tail suspension test; cited from earlier work.

As for `COC(=O)Nc1ccc2[nH]cc(CCNC(C)=O)c2c1` [5-MCA-NAT, 5-methoxy-carbonylamino-N-acetyltryptamine], the “affinity for MT-3 melatonin sites” value in experiment [1] is listed as “high affinity”. Further, the “affinity or efficacy for other melatonin receptors” value in experiment [2] is “low affinity or efficacy”. For the same compound, the duration of immobility entry with C57BL/6J mice (5-MCA-NAT 10 mg/kg i.p., 30 min before testing, 6 min observation) is given as “did not affect the duration of immobility”; in the experiment with C57BL/6J mice (5-MCA-NAT 25 mg/kg i.p., 30 min before testing, 6 min observation), “decreased the duration of immobility”; with C57BL/6J mice (5-MCA-NAT 50 mg/kg i.p., 30 min before testing, 6 min observation) it was “decreased the duration of immobility”; with C57BL/6J mice (combination: 5-MCA-NAT 10 mg/kg i.p. with nifedipine 5 mg/kg i.p. injected 15 min after), “decreased the duration of immobility”.
As for `COc1ccc2[nH]cc(CCNC(C)=O)c2c1` [Melatonin, N-acetyl-5-methoxytryptamine], the antidepressant-like activity result in the experiment on mouse is recorded as “antidepressant-like activity”.
Consider `COc1cc2nc(N3CCN(C(=O)c4ccco4)CC3)nc(N)c2cc1OC` [Prazocin, reference compound], for which the duration of immobility result in the experiment on C57BL/6J mice (prazocin 0.5 mg/kg alone) is recorded as “did not affect the duration of immobility”. Besides, the “effect on decrease of immobility induced by 5-MCA-NAT” value in the experiment with C57BL/6J mice (prazocin 0.5 mg/kg injected 15 min before 5-MCA-NAT 50 mg/kg) is “prevented decrease of immobility”.
